Results as given in article PMC5407626 (PLoS ONE, 2017).
Several values for one entry are separate records, joined by “and”; a condition that tells them apart may be missing. Identical values can stand only once. Like-named read-outs stand apart in the source and are kept apart here.

Tests used:
[1] = target: T1, DES1 (Homo sapiens, UniProt O15121); assay: DES1 activity in ARPE-19 cells (dihydroceramide/ceramide ratio, LC/MS); type: cell-based; set-up: DHCER (C18) / CER (C18) / DHCER (C16) / CER (C16): unit not given here; conditions: 10 μM, 24 h; for increase in dihydroceramide/ceramide ratio, C18 ceramide: compared to DMSO control; for MEAN RATIO (DH / C) C16 / MEAN RATIO C18 DHCER/CER: mean of 3; for MEAN RATIO (DH / C) C16: DMSO 0.08; for MEAN RATIO C18 DHCER/CER: DMSO 0.289
T1 construct: endogenous in cells; host or cells: ARPE-19
T1 sequence (O15121 1-323): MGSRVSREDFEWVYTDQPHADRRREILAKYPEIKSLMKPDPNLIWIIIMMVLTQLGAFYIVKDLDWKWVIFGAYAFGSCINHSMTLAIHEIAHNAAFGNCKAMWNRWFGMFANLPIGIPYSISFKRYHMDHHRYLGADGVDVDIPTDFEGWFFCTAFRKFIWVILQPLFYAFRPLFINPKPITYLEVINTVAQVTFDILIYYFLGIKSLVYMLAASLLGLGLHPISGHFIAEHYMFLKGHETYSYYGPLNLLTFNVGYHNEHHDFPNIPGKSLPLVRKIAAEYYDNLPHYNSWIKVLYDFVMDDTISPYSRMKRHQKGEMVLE
Protocol: ARPE-19 cells were seeded onto tissue culture plates at a density of 2x10^5 cells/ml in complete medium and allowed to grow overnight. Cells were then treated with retinoids (10 μM) or vehicle (control) for 24 hours in a 37°C, 5% CO2 incubator at which time cells were harvested and total lipids were extracted into methyl-tert-butyl ether (MTBE) using the method of Matyash et al.. Extracted lipids normalized to total protein as described were subjected to liquid chromatography mass spectrometry (LC/MS) to determine the sphingolipid content in treated ARPE-19 cells. LC/MS analysis was performed using a Waters 2695 LC system coupled to an AB Sciex API2000 triple quadrupole mass spectrometer. […] The mass spectral analysis of the sphingolipid species was performed using electrospray ionization in the positive ion mode with multiple reaction monitoring (MRM). The following compound-specific transitions for precursor and characteristic product ions were used: 538 → 264 for C16 Ceramide (Cer); 540 → 266 for C16 dihydroceramide (DHCer); 566 →264 for C18 Cer; and 568 → 266 for C18 DHCer. Data was acquired and analyzed using Analyst software v 1.5 (AB Sciex).
The ratio of substrate to product for C16 and C18 ceramides (dihydroceramide/ceramide) in the presence of DMSO or inhibitors was determined by LC/MS.
Lipids were extracted from one 100 mm Petri dish for each biological replicate and subjected to mass spectrometry analysis. Data plotted as means±standard deviation; n = 3.

[2] = target: T2, RARβ (Homo sapiens, UniProt P10826); assay: GeneBLAzer RAR-beta DA assay, agonist mode; type: cell-based
T2 sequence (P10826 183-417 limits assumed): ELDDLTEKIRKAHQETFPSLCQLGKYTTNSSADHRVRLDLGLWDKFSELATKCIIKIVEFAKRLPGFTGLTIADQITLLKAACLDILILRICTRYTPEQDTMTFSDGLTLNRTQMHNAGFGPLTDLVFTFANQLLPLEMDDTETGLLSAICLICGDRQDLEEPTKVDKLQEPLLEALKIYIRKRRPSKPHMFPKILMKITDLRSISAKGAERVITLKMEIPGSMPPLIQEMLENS
Protocol: (§1) The potency of agonists and antagonists was measured by GeneBLAzer RAR-beta DA Assay Kit (ThermoFisher Scientific) according to the manufacturer’s recommendations.
The phenylretinamides may have the ability to modulate the expression of proteins and induce cell apoptosis via RAR-dependent and -independent pathways. […] Human retina-derived cells in culture show differences in expression of RAR receptors. […] Clonetics HRPE primary human cells specifically express only RARβ [50].

[3] = target: T2, RARβ; assay: GeneBLAzer RAR-beta DA assay, antagonist mode (competition with at-RA); type: cell-based; conditions: for competition with all-trans-retinoic acid: at-RA 0.5–1.5 nM, tested 10^−5 to 10^−9 M
Protocol: as §1
The phenylretinamides may have the ability to modulate the expression of proteins and induce cell apoptosis via RAR-dependent and -independent pathways. […] Additionally, apoptosis of neuroblastoma cell lines was blocked by two retinoic acid receptor (RAR)-β/γ-specific antagonists, but not by a RARα-specific antagonist. […] However, in this case the specific RARα-specific antagonist AGN194301 could block fenretinde-induced apoptosis. […] Human retina-derived cells in culture show differences in expression of RAR receptors. […] Clonetics HRPE primary human cells specifically express only RARβ [50].
Fluorescence was measured at excitation (ex) 409 nm/emission (em) 460 and at ex 409nm/em 530 nm and the ratio was determined and plotted against a range of concentrations (10^−5 to 10^−9 M) of the tested compounds.

[4] = target: T2, RARβ; set-up: method as in Invitrogen; conditions: RARβ agonist assay; ref Invitrogen; read-out: EC50 from Invitrogen; cited from earlier work
[5] = mice, after 4 hours of treatment; cited from earlier work
[6] = target: RBP4 (Homo sapiens, UniProt P02753); set-up: method as in PMID 16303925; conditions: cited from earlier work
[7] = humans; cited from earlier work

Row | Structure (SMILES) | effect on DES1 activity / substrate accumulation [1] | EC50 [2] | increase in dihydroceramide/ceramide ratio, C18 ceramide [1] | MEAN RATIO (DH / C) C16 [1] | MEAN RATIO C18 DHCER/CER [1] | CER (C16) ([1]; single samples) | CER (C18) ([1]; single samples) | Ceramide Content, C16 CER ([1]; single samples) | Ceramide Content, C18 CER ([1]; single samples) | Mass Injected, C16 CER ([1]; single samples) | Mass Injected, C18 CER ([1]; single samples) | RATIO C18 DHCER/CER ([1]; single samples) | competition with all-trans-retinoic acid [3] | Ceramide Content, C18 DHCER ([1]; single samples) | DHCER (C18) ([1]; single samples) | Mass Injected, C18 DHCER ([1]; single samples) | further results
1 | CC1=C(/C=C/C(C)=C/C=C/C(C)=C/C(=O)Nc2ccc(O)cc2)C(C)(C)CCC1 [fenretinide, N-[4-hydroxyphenyl]retinamide] | inhibit DES1 activity | 560 nM |  |  |  |  |  |  |  |  |  |  |  |  |  |  | CER (C16) ([1]; single samples, listed as 4HPR): 17.20 and 18.50 and 17.10; CER (C18) ([1]; single samples, listed as 4HPR): 12.80 and 11.80 and 11.95; Ceramide Content, C16 CER ([1]; single samples, listed as 4HPR): 17.20 ng and 18.50 ng and 17.10 ng; Ceramide Content, C16 DHCER ([1]; single samples, listed as 4HPR): 6.15 ng and 4.01 ng and 5.75 ng; Ceramide Content, C18 CER ([1]; single samples, listed as 4HPR): 12.80 ng and 11.80 ng and 11.95 ng; Ceramide Content, C18 DHCER ([1]; single samples, listed as 4HPR): 9.30 ng and 7.50 ng and 7.25 ng; DHCER (C16) ([1]; single samples, listed as 4HPR): 5.75 and 6.15 and 4.01; DHCER (C18) ([1]; single samples, listed as 4HPR): 9.30 and 7.50 and 7.25; Mass Injected, C16 CER ([1]; single samples, listed as 4HPR): 3.44 ng and 3.70 ng and 3.42 ng; Mass Injected, C16 DHCER ([1]; single samples, listed as 4HPR): 1.230 ng and 0.801 ng and 1.150 ng; Mass Injected, C18 CER ([1]; single samples, listed as 4HPR): 2.56 ng and 2.36 ng and 2.39 ng; Mass Injected, C18 DHCER ([1]; single samples, listed as 4HPR): 1.86 ng and 1.50 ng and 1.45 ng; IC50 ([3]; competition with 1 nM at-RA): 10000 nM; EC50 [4]: 220 nM
2 | O=C(O)c1ccccc1NC(=O)N1CCC(c2ccccc2C(F)(F)F)CC1 [A1120] | do not lead to overaccumulation of substrate |  | ~ 2 fold | 0.07 | 0.153 and 0.1528 | 18.30 and 24.15 and 18.55 | 11.60 and 16.65 and 11.05 | 18.30 ng and 24.15 ng and 18.55 ng | 11.60 ng and 16.65 ng and 11.05 ng | 3.66 ng and 4.83 ng and 3.71 ng | 2.32 ng and 3.33 ng and 2.21 ng | 0.136 and 0.202 and 0.120 | cannot compete |  |  |  | 
3 | CC1=C(/C=C/C(C)=C/C=C/C(C)=C/C(=O)Nc2ccc(O)cc2)C(C)(C)CCC1=O [3-keto-HPR, 4-oxo-N-(4-hydroxyphenyl)retinamide] | inhibit DES1 activity |  | ~ 3 fold | 0.66 |  | 25.15 and 24.70 and 25.05 | 14.35 and 14.50 and 14.55 | 25.15 ng and 24.70 ng and 25.05 ng | 14.35 ng and 14.50 ng and 14.55 ng | 5.03 ng and 4.94 ng and 5.01 ng | 2.87 ng and 2.90 ng and 2.91 ng | 0.676 and 0.776 and 0.667 |  | 9.70 ng and 11.25 ng | 9.70 and 11.25 | 1.94 ng and 2.25 ng | MEAN RATIO C18 DHCER/CER ([1]; listed as 3-KETO-HPR): 0.7062; MEAN RATIO C18 DHCER/CER ([1]; listed as KETO): 0.706; Ceramide Content, C16 DHCER ([1]; single samples): 19.55 ng and 15.70 ng and 14.55 ng; DHCER (C16) ([1]; single samples): 19.55 and 15.70 and 14.55; Mass Injected, C16 DHCER ([1]; single samples): 3.910 ng and 3.140 ng and 2.910 ng; RATIO (DH / C) C16 ([1]; single samples): 0.78 and 0.64 and 0.58; metabolite level as % of plasma levels of 4-HPR [5]: ~ 23%
4 | COc1ccc(NC(=O)/C=C(C)/C=C/C=C(C)/C=C/C2=C(C)CCCC2(C)C)cc1 [MPR, N-[4-methoxyphenyl]retinamide] | do not lead to overaccumulation of substrate | 1000 nM and 1010 nM |  | 0.08 | 0.338 and 0.3375 | 20.40 and 20.30 and 18.55 | 14.65 and 15.00 and 13.65 | 20.40 ng and 20.30 ng and 18.55 ng | 14.65 ng and 15.00 ng and 13.65 ng | 4.08 ng and 4.06 ng and 3.71 ng | 2.93 ng and 3.00 ng and 2.73 ng | 0.362 and 0.331 and 0.319 | cannot compete | 5.30 ng and 4.97 ng and 4.35 ng | 5.30 and 4.97 | 1.06 ng and 0.99 ng and 0.87 ng | affinity for RBP4 lower than for fenretinide or retinol [6]: 2 fold; Kd ([6]; read-out: affinity for RBP4): ~100 nM; metabolite level as % of plasma levels of 4-HPR [7]: ~ 45%
